Here are results for nine compounds from patent US20250388623A1, “PEPTIDE INHIBITOR AND USE THEREOF” (CHENGDU BRILLIANT INSPIRATION BIOTHERAPEUTICS CO., LTD, priority 2022, published 2025).

Bridge positions count the residues as written; N and C are the ends. Peptide text beside a SMILES is read from it.

The subject of assay [1] is human lung adenocarcinoma A549 cells. Briefly: Transwell tumor cell migration, co-culture with PMA-differentiated THP-1 cells. In kind it is cell-based. The settings on record: 100 μM polypeptide 48 h, co-culture 24 h; negative control group = 100.00. As to the method:
(§1) This Example was to assess the effects of polypeptides on the migration abilities of different tumor cells. The experiment was performed using transwell nested chambers (membrane pore size of 8 μm), where THP-1 cells were inoculated in the lower chamber and treated with 300 nM PMA (Sigma, Catalog No.P1585) for differentiation and chamber-wall adherence, and then treated with 100 μM polypeptide (in the negative control, an equal volume of solvent was added) for 48 hours. The upper chamber was inoculated with tumor cells, human lung adenocarcinoma A549 cells (American Typical Culture Collection, ATCC, CCL-18), and co-cultured for 24 hours; or inoculated with human liver cancer HepG2/C3A cells (ATCC, CRL-10741), and co-cultured for 24 h; or inoculated with human breast cancer MCF7 cells (ATCC, HTB-22), and co-cultured for 48 h. After that, the upper chamber was taken out, fixed with 70% ethanol for 10 min and washed, then stained with Giemsa staining solution (Beyotime, Catalog No.C0131) for 45 min. After washing with double distilled water 2-3 times, unmigrated cells were wiped off the upper layer with a cotton swab. After the chamber was dried, it was observed under a microscope, and five different fields of view under a 100× magnification were randomly selected for counting and statistics. The polypeptides had significant inhibitory effects on the migratory abilities of human lung adenocarcinoma cells, human liver cancer cells, and human breast cancer cells.

The test system of assay [2] is human breast cancer MCF7 cells. The assay is described as above. The assay is classed as cell-based. The settings on record: 100 μM polypeptide 48 h, co-culture 48 h; negative control group = 100.00. Here is the method:
as §1

The subject of assay [3] is human liver cancer HepG2/C3A cells. The assay is described as above. The assay is classed as cell-based. The settings on record: 100 μM polypeptide 48 h, co-culture 24 h; negative control group = 100.00. As to the method:
as §1

The test system of assay [4] is mouse lung fibrosis model induced by bleomycin (BLM). Briefly: Hydroxyproline (HYP) content / collagen deposition in lung, BLM mouse fibrosis model. The assay is classed as in vivo. The note with it: 3 mg/kg intratracheal twice weekly x4 from Day 8, Day 21, BLM model group = 100.00. As to the method:
This Example was to evaluate the inhibitory effect of polypeptides on collagen deposition in fibrotic tissues. In this example, 6- to 8-week-old male C57/6J mice weighing 18-20 g were used as subjects for the study. The experimental animals were randomized into groups, eight animals in each group. On the day of modeling (Day 1), a 0.7 USP/kg dose of bleomycin solution was administered via the tracheal route to induce the model. Treatment dosing started on Day 8. Each peptide-treated group received the peptide drug intratracheally at a dosage of 3 mg/kg, administered twice weekly for a total of four doses. The BLM model group received an equal volume of solvent (saline) as a control. The administration procedure followed that described in Example 4. Day 21 was set as the experimental endpoint for assessing the degree of fibrosis in the model.
On Day21, the animals were dissected to collect lung tissues, and after grinding the lung tissues in liquid nitrogen, hydroxyproline (HYP) was extracted from the tissue using acid hydrolysis. HYP is a unique amino acid found in collagen, and the determination of HYP content is an important indicator reflecting the metabolism of collagen tissue and the degree of fibrosis. 1 mL of 6N HCl was added per 100 mg of tissue and thoroughly mixed, followed by hydrolysis at 121° C. for 6 hours. The hydrolysate was centrifuged, and the resulting supernatant, along with a gradient of HYP standard solutions (Sigma, Catalog No. V900395-25G) at different concentrations, was used for HYP content determination. To each well of a 96-well plate, 10 μL of the hydrolysate supernatant was added and dried in an oven at 65° C. 100 μL per well of 1.4% chloramine T oxidizing solution (Sigma, Catalog No. 23270-50G) was added, and incubated at room temperature for 15 minutes. 100 μL per well of Ehrlich's color development solution (Solarbio, Catalog No. G1290) was added and incubated at 65° C. for 30 minutes. The absorbance of each sample well was measured at 560 nm (OD560) using a multifunctional microplate reader (TECAN, model Infinite 200 Pro). The total HYP content in the lung tissue from each experimental group was calculated to determine the reduction percentage of HYP content in the peptide-treated group relative to the model group, and the inhibitory effect of the peptide molecule on collagen deposition at the fibrotic site was assessed.

For assay [5], the system named is rat fibrotic disease model (bleomycin). Briefly: Lung index and fibrotic pathology (Masson's trichrome) in bleomycin rat fibrosis model. The settings on record: for Lung index Mean(‰): 2 mg/kg intratracheal twice weekly x4 from Day 1, Day 15, BLM model 8.63, negative control 4.62; for Fibrosis score Mean: 2 mg/kg intratracheal twice weekly x4 from Day 1, Day 15, Masson's trichrome, BLM model 3.34, negative control 0.96. In kind it is in vivo. As to the method: This Example was to assess the inhibitory effect of polypeptide administration on the expression levels of pro-fibrotic factors at pathological fibrotic sites. 6- to 8-week-old male SD rats weighing 200 to 220 g were used as subjects for the study. The experimental animals were randomized into groups, 6 animals in each group. On the day of modeling (Day 1), a single dose of 1.8 USP/kg of bleomycin solution was administered via the tracheal route to the BLM model group and each peptide-treated group to induce the model. The negative control group was given an equal volume of saline. Starting on Day 1, each peptide-treated group received intratracheal administration of the peptide at a dosage of 2 mg/kg, with a dosing frequency of twice a week, for a total of four administrations. The BLM model group and the negative control group received an equal volume of solvent (saline) as a control, with the volume being 100 μL. The procedure followed that described in Example 4.
On Day 15, the lung tissues were dissected, washed with saline to remove blood stains, dried with gauze, and weighed. The lung index was calculated (lung index=(wet lung weight/body weight)×1000. This index reflects the general condition of the lung tissue, including edema, inflammation, and fibrosis). Histopathological analysis was performed on the dissected lung tissues. The lung tissues were perfused with 5 mL of paraformaldehyde via the trachea and placed in 40 mL of paraformaldehyde. A small amount of gauze was added to ensure the lung tissues were completely immersed in the fixative solution. The tissues were fixed for more than 24 hours. One lobe of the left lung and four lobes of the right lung were trimmed to the maximum coronal plane, and the left and right lungs were individually placed in two embedding cassettes, and then paraffin-embedded to make 3 μm sections. Masson's trichrome staining was performed as described in Example 7. After digital scanning, for each lung lobe, ≤10 visual fields were captured under a 10× magnification. The severity score of fibrosis was assessed to evaluate the inhibitory effects of the polypeptides on fibrotic deposition at pathological fibrotic sites.

With `CC(=O)N[C@H](C(=O)N[C@H]1CSSC[C@@H](C(=O)O)NC(=O)[C@H](CC(N)=O)NC(=O)[C@H](CC(=O)O)NC(=O)[C@H](CCC(=O)O)NC(=O)[C@H](C)NC(=O)[C@H](CC(=O)O)NC1=O)[C@@H](C)O` [SEQ ID NO: 43, Ac-Thr-cyclo[Cys-Asp-Ala-Glu-Asp-Asn-Cys]] (Ac-TCDAEDNC-OH; disulfide 2-8), the “A549 migration Mean (%)” value in assay [1] is 83.37%. Besides, the “MCF7 migration Mean (%)” value in assay [2] came to 73.84%. Moreover, the “HEPG2/C3A migration Mean (%)” value in assay [3] was found to be 71.02%. The “HYP content in lung tissue relative to model group, Mean (%)” value in assay [4] stood at 72.18%. Further, in assay [5], the “Lung index Mean(‰)” value is listed as 7.11 ‰ and the “Fibrosis score Mean” value stood at 2.72.
Regarding “Ac-TQDAEDN-NH2 [SEQ ID NO: 06, Ac-Thr-Gln-Asp-Ala-Glu-Asp-Asn-NH2]”, the “A549 migration Mean (%)” value in assay [1] turned out to be 80.41%. Further, in assay [2], the “MCF7 migration Mean (%)” value was 51.95%. In addition, the “HEPG2/C3A migration Mean (%)” value in assay [3] stood at 81.77%. For the same compound, in assay [4], the “HYP content in lung tissue relative to model group, Mean (%)” value was found to be 79.51%. Moreover, in assay [5], the “Lung index Mean(‰)” value is recorded as 7.17 ‰ and the “Fibrosis score Mean” value was 2.66.
Take “Ac-TQDAEDNTASH-NH2 [SEQ ID NO: 33, Ac-Thr-Gln-Asp-Ala-Glu-Asp-Asn-Thr-Ala-Ser-His-NH2]”: in assay [1], the “A549 migration Mean (%)” value is 62.89%. Further, in assay [2], the “MCF7 migration Mean (%)” value stood at 47.13%. The “HEPG2/C3A migration Mean (%)” value in assay [3] is reported as 72.07%. For the same compound, the “HYP content in lung tissue relative to model group, Mean (%)” value in assay [4] worked out at 82.23%. In assay [5], the “Lung index Mean(‰)” value is recorded as 7.37 ‰ and the “Fibrosis score Mean” value amounted to 2.63.
With `C[C@@H]1NC(=O)[C@H]([C@@H](C)O)NC(=O)[C@H](CC(N)=O)NC(=O)[C@H](CC(=O)O)NC(=O)[C@H](CCC(=O)O)NC(=O)[C@@H]2CCCN2C(=O)[C@H](CC(=O)O)NC(=O)[C@H](CCC(N)=O)NC(=O)[C@H]([C@@H](C)O)NC(=O)[C@H](CO)NC1=O` [SEQ ID NO: 46, cyclo[Thr-Gln-Asp-Pro-Glu-Asp-Asn-Thr-Ala-Ser]] (cyclo(ASTQDPEDNT)), the “A549 migration Mean (%)” value in assay [1] was determined as 36.12%. Moreover, the “MCF7 migration Mean (%)” value in assay [2] is recorded as 57.98%. In addition, the “HEPG2/C3A migration Mean (%)” value in assay [3] turned out to be 64.77%. For the same compound, in assay [4], the “HYP content in lung tissue relative to model group, Mean (%)” value came to 80.16%.
For `C[C@@H]1NC(=O)[C@H](CC(=O)O)NC(=O)[C@H](CCC(N)=O)NC(=O)[C@H]([C@@H](C)O)NC(=O)[C@H](CC(N)=O)NC(=O)[C@H](CC(=O)O)NC(=O)[C@H](CCC(=O)O)NC1=O` [SEQ ID NO: 40, cyclo[Thr-Gln-Asp-Ala-Glu-Asp-Asn]] (cyclo(AEDNTQD)), in assay [1], the “A549 migration Mean (%)” value is on record as 67.97%. In addition, the “MCF7 migration Mean (%)” value in assay [2] is given as 51.27%. For the same compound, the “HEPG2/C3A migration Mean (%)” value in assay [3] was determined as 67.27%. Further, in assay [4], the “HYP content in lung tissue relative to model group, Mean (%)” value is on record as 77.88%.
“Ac-TQDAEDPTA-NH2 [SEQ ID NO: 22, Ac-Thr-Gln-Asp-Ala-Glu-Asp-Pro-Thr-Ala-NH2]”: in assay [1], the “A549 migration Mean (%)” value is 59.45%. Moreover, in assay [2], the “MCF7 migration Mean (%)” value was 48.64%. In addition, the “HEPG2/C3A migration Mean (%)” value in assay [3] is given as 76.69%. In addition, the “HYP content in lung tissue relative to model group, Mean (%)” value in assay [4] was determined as 72.66%. In addition, in assay [5], the “Lung index Mean(‰)” value is on record as 7.39 ‰ and the “Fibrosis score Mean” value is given as 2.70.
As for “Ac-TQDPEDNTAS-NH2 [SEQ ID NO: 26, Ac-Thr-Gln-Asp-Pro-Glu-Asp-Asn-Thr-Ala-Ser-NH2]”, the “A549 migration Mean (%)” value in assay [1] worked out at 73.25%. Also, the “MCF7 migration Mean (%)” value in assay [2] turned out to be 63.23%. In assay [3], the “HEPG2/C3A migration Mean (%)” value turned out to be 55.16%. Besides, the “HYP content in lung tissue relative to model group, Mean (%)” value in assay [4] was 72.07%. Besides, in assay [5], the “Lung index Mean(‰)” value is recorded as 7.17 ‰ and the “Fibrosis score Mean” value is on record as 2.43.
Take “Ac-TQDAEDPTAS-NH2 [SEQ ID NO: 25, Ac-Thr-Gln-Asp-Ala-Glu-Asp-Pro-Thr-Ala-Ser-NH2]”: the “A549 migration Mean (%)” value in assay [1] stood at 62.95%. Moreover, in assay [2], the “MCF7 migration Mean (%)” value is 61.75%. Moreover, in assay [3], the “HEPG2/C3A migration Mean (%)” value is 63.99%. Also, the “HYP content in lung tissue relative to model group, Mean (%)” value in assay [4] is listed as 77.75%. Further, in assay [5], the “Lung index Mean(‰)” value is recorded as 7.42 ‰ and the “Fibrosis score Mean” value was determined as 2.62.
Turning to `CC(=O)N[C@H](C(=O)N[C@H]1CSSC[C@@H](C(N)=O)NC(=O)[C@H](CC(N)=O)NC(=O)[C@H](CC(=O)O)NC(=O)[C@H](CCC(=O)O)NC(=O)[C@H](C)NC(=O)[C@H](CC(=O)O)NC1=O)[C@@H](C)O` [SEQ ID NO: 44, Ac-Thr-cyclo[Cys-Asp-Ala-Glu-Asp-Asn-Cys]-NH2] (Ac-TCDAEDNC-NH2; disulfide 2-8), the “A549 migration Mean (%)” value in assay [1] is given as 73.63%. In addition, the “MCF7 migration Mean (%)” value in assay [2] is recorded as 68.24%. The “HEPG2/C3A migration Mean (%)” value in assay [3] is given as 70.63%. Also, the “HYP content in lung tissue relative to model group, Mean (%)” value in assay [4] is listed as 78.25%.
